Measurements as given in patent publication US20220287970A1, “COMPOSITION FOR INHIBITING SAPONIN-INDUCED HEMOLYSIS, CONTAINING CATIONIC LIPOSOME” (priority 2020, published 2022).

Columns and labels:
red blood cells (RBCs) [1] = test: Hemolysis analysis: steroidal and triterpenoid saponins (Example 5); type: cell-based; conditions: saponin alone
Procedure: 1) The liposome, saponin, sucrose in a HEPES buffer (pH 7.4), and distilled water were placed in a 96-well plate, as shown in Tables 14 and 15 below.
2) The reaction was carried out at room temperature and 300 rpm for 30 minutes using an orbital shaker.
3) 3 mL of RBCs were suspended in 10 mL of PBS and centrifuged at room temperature and 1500 rpm for 5 minutes, after which the supernatant was removed.
4) Steps 2) and 3) were repeated three times, and thus the RBCs were washed.
5) The RBC pellet was suspended in 1 mL of PBS and diluted to 1/100, followed by cell counting.
6) The RBCs were diluted to 1.5×10^9 cells/mL using PBS and dispensed at 3×10^7 cells/20 μL/well in a 96-well plate treated with the test material of 2) above.
7) The reaction was carried out at room temperature and 300 rpm for 1 hour using an orbital shaker.
8) The 96-well plate was centrifuged at room temperature and 1500 rpm for 5 minutes.
9) 50 μL of the supernatant was transferred to a new 96-well plate, and the absorbance was then measured at 415 nm.
10) Hemolysis (%) was calculated using the following equation.
(§1) Hemolysis (%)=(OD of sample OD of 0% hemolysis)/(0D of 100% hemolysis−OD of 0% hemolysis)×100

red blood cells (RBCs) [2] = test: Hemolysis analysis: cationic liposome screening vs crude saponin and QS21 (Example 3); type: cell-based; conditions: saponin alone
Procedure: 1) After freeze-drying, the liposome stored in the glass vial was hydrated with 225 μL of distilled water and then allowed to react at 60° C. for 10 minutes to thus completely dissolve the liposome.
2) The liposome, saponin, sucrose in a HEPES buffer (pH 7.4), and distilled water were placed in a 96-well plate, as shown in Tables 8 and 9 below.
3) The reaction was carried out at room temperature and 300 rpm for 30 minutes using an orbital shaker.
4) 3 mL of RBCs were suspended in 10 mL of PBS and centrifuged at room temperature and 1500 rpm for 5 minutes, after which the supernatant was removed.
5) Steps 3) and 4) were repeated three times, and thus the RBCs were washed.
6) The RBC pellet was suspended in 1 mL of PBS and diluted to 1/100, followed by cell counting.
7) The RBCs were diluted to 1.5×10^9 cells/mL using PBS and dispensed at 3×10^7 cells/20 μL/well in a 96-well plate treated with the test material of 2) above.
8) The reaction was carried out at room temperature and 300 rpm for 1 hour using an orbital shaker.
9) The 96-well plate was centrifuged at room temperature and 1500 rpm for 5 minutes.
10) 50 μL of the supernatant was transferred to a new 96-well plate, and the absorbance was then measured at 415 nm.
11) Hemolysis (%) was calculated using the following equation.
as §1

For `C[C@@H]1CC[C@@]2(OC1)O[C@H]1C[C@H]3[C@@H]4CC=C5C[C@@H](O[C@@H]6O[C@H](CO)[C@@H](O[C@@H]7O[C@@H](C)[C@H](O[C@@H]8O[C@@H](C)[C@H](O)[C@@H](O)[C@H]8O)[C@@H](O)[C@H]7O)[C@H](O)[C@H]6O[C@@H]6O[C@@H](C)[C@H](O)[C@@H](O)[C@H]6O)CC[C@]5(C)[C@H]4CC[C@]3(C)[C@@]1(O)[C@@H]2C` [Paris VII], the “amount of saponin at which 60% hemolysis was observed” value (red blood cells (RBCs) [1]) was 1.25 µg and the “amount of saponin at which 100% hemolysis was observed” value (red blood cells (RBCs) [1]) was 5 µg.

For `C[C@@H]1CC[C@@]2(OC1)O[C@H]1[C@@H](O)[C@H]3[C@@H]4CC[C@H]5C[C@@H](O[C@@H]6O[C@H](CO)[C@H](O[C@@H]7O[C@H](CO)[C@@H](O)[C@H](O[C@@H]8OC[C@@H](O)[C@H](O)[C@H]8O)[C@H]7O[C@@H]7O[C@H](CO)[C@H](O)[C@H](O[C@@H]8O[C@H](CO)[C@@H](O)[C@H](O)[C@H]8O)[C@H]7O)[C@H](O)[C@H]6O)[C@H](O)C[C@]5(C)[C@H]4CC[C@]3(C)[C@H]1[C@@H]2C` [digitonin], the “amount of saponin at which 60% hemolysis was observed” value (red blood cells (RBCs) [1]) was 2.5 µg and the “amount of saponin at which 100% hemolysis was observed” value (red blood cells (RBCs) [1]) was 10 µg.

In the case of `C[C@@H]1O[C@@H](O[C@H]2[C@H](O[C@H]3CC[C@@]4(C)[C@@H](CC[C@]5(C)[C@@H]4CC=C4[C@@H]6CC(C)(C)CC[C@]6(C(=O)O)CC[C@]45C)[C@]3(C)CO)OC[C@H](O)[C@@H]2O)[C@H](O)[C@H](O)[C@H]1O` [α-hederin], the “amount of saponin at which 60% hemolysis was observed” value (red blood cells (RBCs) [1]) is reported as 1.25 µg and the “amount of saponin at which 100% hemolysis was observed” value (red blood cells (RBCs) [1]) is reported as 10 µg.

In the case of QS21, the “amount of saponin at which 100% hemolysis was observed” value (red blood cells (RBCs) [2]) is reported as 2.5 µg.
